From PubChem BioAssay AID608 (Sanford-Burnham Center for Chemical Genomics, 2007)
Active and inactive are the calls of the source. No rule for the calls is given here.

biological target: Peptidyl-prolyl cis-trans isomerase FKBP1A (Homo sapiens) (UniProt P62942); test: FKBP12 binders, biophysical, NMR detection (AID 608); conditions: NMR binding, purified FKBP12
Sequence (P62942 whole entry, looked up): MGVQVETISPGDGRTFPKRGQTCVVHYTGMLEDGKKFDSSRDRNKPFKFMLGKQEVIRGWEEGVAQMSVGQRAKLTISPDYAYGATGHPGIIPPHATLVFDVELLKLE

SMILES | Kd
CNC(=S)Nc1ccc(C(=O)O)cc1 | > 4 mM (inactive)
COc1ccc(Cl)cc1-c1nc(-c2ccncc2)no1 | > 4 mM (inactive)
NCCc1c[nH]c2ccccc12 | > 4 mM (inactive)
Oc1cc(O)c2c(c1)O[C@H](c1ccc(O)c(O)c1)[C@H](O)C2 | > 4 mM (inactive)
CNc1nc(SC)nc(N2CCOCC2)n1 | > 4 mM (inactive)
CCSc1n[nH]c(=O)[nH]c1=O | > 4 mM (inactive)
O=C(NC1CSCC1O)c1ccccc1 (configuration not stated) | > 4 mM (inactive)
OCc1ccc(OC(F)(F)F)cc1 | > 4 mM (inactive)
O=C(c1ccco1)N1CCNCC1 | > 4 mM (inactive)
O=C1NC(=O)C2C3C=CC(O3)C12 (configuration not stated) | > 4 mM (inactive)
O=C(O)c1ccc2nccnc2c1 | > 4 mM (inactive)
CCCCCC/C=C\CCCCCCCc1cccc(O)c1C(=O)O | > 4 mM (inactive)
S=c1[nH]cnc2sccc12 | > 4 mM (inactive)
CCOC(=O)c1ccc(F)cc1F | > 4 mM (inactive)
Cn1c(=O)[nH]c2nc[nH]c2c1=O | > 4 mM (inactive)
COc1ccc(-c2cc(=O)c3c(OC)c(OC)c(OC)c(OC)c3o2)cc1OC | > 4 mM (inactive)
COC(=O)c1ccc(Cl)c(NC(C)=O)c1 | > 4 mM (inactive)
Cc1cc(C)cc(C(=O)N2CCC(C(N)=O)CC2)c1 | > 4 mM (inactive)
COC(=O)c1c(C)cc(OC)cc1O | > 4 mM (inactive)
COC(=O)c1scc(C)c1N | > 4 mM (inactive)
NC(=O)C1(c2ccccc2)CCOCC1 | > 4 mM (inactive)
COc1cc(OC)c2c(c1)O[C@H](c1ccc(OC)c(OC)c1)[C@@H](O)C2 | > 4 mM (inactive)
CN(C)CCCN1CNC(=S)NC1 | > 4 mM (inactive)
Cc1n[nH]c(C)c1-c1ccccc1C(=O)O | > 4 mM (inactive)
COc1ccc(N=C2NC(=O)CS2)cc1 | > 4 mM (inactive)

SMILES | Kd
Cc1noc(C)c1C(=O)NC1=NCCS1 | > 4 mM (inactive)
COc1cc(CNCc2cccs2)ccc1OCC(=O)N1CCOCC1 | > 4 mM (inactive)
O=C(NCc1cccs1)c1ccc2c(c1)OCCO2 | > 4 mM (inactive)
NC1Cc2ccccc2C1 | > 4 mM (inactive)
COc1c(O)cc2oc3cc(O)c(CC=C(C)C)c(O)c3c(=O)c2c1CC=C(C)C | > 4 mM (inactive)
Brc1ccccc1Cn1c(-c2cscn2)nc2ccccc21 | inactive
CC(=O)NC(c1ccccc1)c1cccnc1 (configuration not stated) | > 4 mM (inactive)
Cc1cc(C(=O)NC(C)c2ccncc2)cs1 (configuration not stated) | > 4 mM (inactive)
Nc1oncc1-c1ccccn1 | > 4 mM (inactive)
CN(C)C(=S)Nc1ccc([N+](=O)[O-])cc1 | > 4 mM (inactive)
COCC(=O)Nc1ccc(F)cc1F | > 4 mM (inactive)
O=C(Nc1ccc2c(c1)OCCO2)c1ccncc1 | > 4 mM (inactive)
Nc1nnc(C(F)(F)F)s1 | > 4 mM (inactive)
Cc1nnc(Nc2ccc(S(N)(=O)=O)cc2)[nH]c1=O | > 4 mM (inactive)
NC1=C(c2ccccc2)C(=O)c2ccccc21 | > 4 mM (inactive)
COc1ccc(C(N)=O)cc1N | > 4 mM (inactive)
NC(=O)C1CCN(C(=S)c2cccs2)CC1 | > 4 mM (inactive)
COc1ccc2nc(N)sc2n1 | > 4 mM (inactive)
Cc1c(C(=O)Nn2cnnc2)oc2ccccc12 | > 4 mM (inactive)
CCNC(=S)Nc1c(C)n(C)n(-c2ccccc2)c1=O | > 4 mM (inactive)
COc1cccc(-c2nc(-c3ccccn3)no2)c1OC | > 4 mM (inactive)
Cc1cc(C)c2ccc[n+]([O-])c2c1O | > 4 mM (inactive)
NC1=NC(=O)/C(=C\c2ccccc2)S1 | > 4 mM (inactive)
N#Cc1nc(-c2cccs2)oc1N1CCOCC1 | > 4 mM (inactive)
O=C(O)Cn1nc(-c2ccccc2)c2ccccc2c1=O | > 4 mM (inactive)

SMILES | Kd
CC(=O)n1nc(-c2cccnc2)nc1N | > 4 mM (inactive)
CC(=O)Nc1cccc(-c2nnc3n2CC(C)S3)c1 (configuration not stated) | > 4 mM (inactive)
O=C1C[C@@H](c2ccc(O)cc2)Oc2cc(O)cc(O)c21 | > 4 mM (inactive)
Cn1ccc(NC(=S)Nc2cccc([N+](=O)[O-])c2)n1 | > 4 mM (inactive)
COC(=O)C[C@H]1C2(C)CC34OC5(C)O[C@@]6([C@H](OC(C)=O)C(OC(C)=O)[C@]7(C)C(/C(=C(/O)C(C)C)C(=O)O[C@H]7c7ccoc7)[C@@]6(O5)[C@H](OC(C)=O)[C@@]3(O)C2OC(=O)C(C)C)[C@]14C (some centres not stated) | > 4 mM (inactive)
O=C(O)CCCN1CNC(=S)NC1 | > 4 mM (inactive)
O=C(O)C1CC(C2CCCCN2)CN2CCCCC12 (configuration not stated) | > 4 mM (inactive)
O=P1(O)c2ccccc2Nc2ccccc21 | > 4 mM (inactive)
O=C1NC(=O)/C(=C/c2ccc(O)cc2)N1 | > 4 mM (inactive)
Cc1occc1C(=O)N1CCN(S(C)(=O)=O)CC1 | > 4 mM (inactive)
O=c1[nH]c(CN2CCN(CCO)CC2)nc2ccccc12 | > 4 mM (inactive)
CCSc1nc(=S)n(CC)c(C)c1C(C)=O | > 4 mM (inactive)
CCCc1cc(=O)[nH]c2nnc(SCC(C)=O)n12 | > 4 mM (inactive)
c1ccc(C[N+]23CCN(CC2)c2ccccc23)cc1 | > 4 mM (inactive)
CC[C@H](/C=C/C(C)C1CCC2C3CCC4=CC(=O)CC[C@]4(C)C3CC[C@]12C)C(C)C (some centres not stated) | > 4 mM (inactive)
O=C(CNC(=O)c1ccc(F)cc1)NC1=NCCS1 | > 4 mM (inactive)
Cc1occc1C(=O)NCc1ccncc1 | > 4 mM (inactive)
NCCCCN=C(N)N | > 4 mM (inactive)
COC(=O)c1ccc(C(=S)N2CCOCC2)cc1 | > 4 mM (inactive)
c1ccc(-c2nsc(N3CCCNCC3)n2)cc1 | > 4 mM (inactive)
O=C(COc1cccc(Cl)c1)N1CCOCC1 | inactive
O=C1C=C(Nc2ccccc2O)c2ccccc2C1=O | > 4 mM (inactive)
CC(C)c1c(O)ccc2c1CCC1[C@@](C)(CO)CCC[C@]21C (some centres not stated) | > 4 mM (inactive)
Cc1nc(CC(=O)O)c(-c2ccccc2)s1 | > 4 mM (inactive)
CC1(C)N([O-])c2cc([N+](=O)[O-])ccc2[N+]1=O | > 4 mM (inactive)

SMILES | Kd
Cc1cccc(-n2c(N)cc(=O)[nH]c2=S)c1 | > 4 mM (inactive)
NC1CSCC1O (configuration not stated) | > 4 mM (inactive)
COC(=O)[C@@H]1C(O)CC[C@H]2CN3CCc4c([nH]c5ccccc45)[C@@H]3C[C@@H]21 (some centres not stated) | > 4 mM (inactive)
Cn1c(=O)c2[nH]c(Nc3ccccc3)nc2n(C)c1=O | > 4 mM (inactive)
COC(=O)c1nc(-c2ccccc2)oc1N(C)C | > 4 mM (inactive)
CC1CCN(C(=O)c2ccc(NS(C)(=O)=O)cc2)CC1 | > 4 mM (inactive)
Cc1nnc2sc(-c3ccco3)nn12 | > 4 mM (inactive)
Nc1nonc1-c1nc2ccccc2[nH]1 | > 4 mM (inactive)
O=C(O)CCC(=O)Nc1nccs1 | > 4 mM (inactive)
[O-][n+]1onc2c1CCc1c-2nn(-c2ccccc2)[n+]1[O-] | > 4 mM (inactive)
O=C(O)C1CSC(c2ccccc2)N1 (configuration not stated) | > 4 mM (inactive)
Cn1c(SCC(N)=O)nnc1-c1cccnc1 | > 4 mM (inactive)
CN1C(=O)C(Cc2c[nH]c3ccccc23)C(=O)N(C)C1=O | > 4 mM (inactive)
NC(=O)CN1CC(c2ccccc2)CC1=O (configuration not stated) | > 4 mM (inactive)
Clc1ncc2[nH]cnc2n1 | > 4 mM (inactive)
NC(=O)Cc1nc(-c2ccccc2)cs1 | > 4 mM (inactive)
Nc1ccc2c(c1)N1CCN=C1S2 | > 4 mM (inactive)
Cc1n[nH]c(=S)[nH]c1=O | > 4 mM (inactive)
c1ccc(-c2nsc(N3CCNCC3)n2)cc1 | > 4 mM (inactive)
O=C(NCc1ccccn1)c1ccccc1Cl | > 4 mM (inactive)
O=C(O)C1(S(=O)(=O)c2ccccc2)CC1 | > 4 mM (inactive)
CSc1nc(C)c(Oc2ccccc2)c(=O)n1C | > 4 mM (inactive)
CSc1nnc(CN2CCSCC2)n1C | > 4 mM (inactive)
O=C(COc1ccc2c(c1)OCO2)N1CCOCC1 | inactive
Nc1cccc(OC(F)(F)F)c1 | > 4 mM (inactive)

SMILES | Kd
CN(Cc1nc2ccccc2n1C)S(C)(=O)=O | > 4 mM (inactive)
O=C1CCC(=O)N1c1nc2ccccc2s1 | > 4 mM (inactive)
c1cncc(Cn2cccc2)c1 | > 4 mM (inactive)
CNC(=O)C1=NCCCc2cc(OC)c(OC)cc21 | > 4 mM (inactive)
OC12C=CC(CC1)CC2 | > 4 mM (inactive)
CC(=O)Nc1cccc(NC(=O)c2cccnc2)c1 | > 4 mM (inactive)
C[C@H]1C(=O)O[C@@H]2CCN3CC=C(COC(=O)[C@](C)(O)[C@]1(C)O)[C@H]23 | > 4 mM (inactive)
Cc1cc(=O)cc(C)n1-c1ccccc1N1CCOCC1 | > 4 mM (inactive)
CCNC(=O)CC[C@H](N)C(=O)O | > 4 mM (inactive)
CSc1nc(NC(C)(C)C)nc(N2CCOCC2)n1 | > 4 mM (inactive)
O=C(c1ccccc1)c1ccccc1C(=O)N1CCOCC1 | > 4 mM (inactive)
Cc1cccn2cc(CNc3ccccc3)nc12 | > 4 mM (inactive)
O=C(NCCO)NC(=S)c1ccccc1 | > 4 mM (inactive)
COc1cc2ccc(=O)oc2c2ccoc12 | > 4 mM (inactive)
CCOC(=O)C1CCN(Cc2ccccc2)CC1 | > 4 mM (inactive)
NCc1cccc2nsnc12 | > 4 mM (inactive)
NC(=O)CC1Sc2ccccc2NC1=O (configuration not stated) | > 4 mM (inactive)
CCC(/C=C/[C@@H](C)[C@H]1CCC2C3CC=C4C[C@@H](O)CC[C@]4(C)C3CC[C@@]21C)C(C)C (some centres not stated) | > 4 mM (inactive)
CC(C)(OC(=O)c1ccccc1)[C@@H]1Cc2cc3ccc(=O)oc3cc2O1 | > 4 mM (inactive)
C[C@]12CCC3C(CC[C@]4(O)C[C@@H](O)CC[C@]34C=O)[C@@]1(O)CCC2C1=CC(=O)OC1 (some centres not stated) | > 4 mM (inactive)
Cc1nnc(NCc2ccc3c(c2)OCO3)[nH]c1=O | > 4 mM (inactive)
NC(=O)CSc1nnc2ccc(-c3ccco3)nn12 | > 4 mM (inactive)
